Source: ChEMBL document CHEMBL1201862, “PubChem BioAssay data set” (2004)
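The compound was tested at five concentrations on cells cultured in 96-well plates, with a 48-hour exposure period. GI50: concentration for 50% inhibition of growth.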 Activity calls are given as the source filed them. Cut-off read from the data, not from the text of the source: active = GI50 up to about 1.1 µM and inactive = higher.

Columns and labels:
Test in all cases: NCI-60 cell line screen, 48 h
786-0 = test system: 786-0
A498 = test system: A498
A549 = test system: A549
ACHN = test system: ACHN
BT-549 = test system: BT-549
CAKI-1 = test system: CAKI-1
CCRF-CEM = test system: CCRF-CEM
COLO 205 = test system: COLO 205
DU-145 = test system: DU-145
EKVX = test system: EKVX
HCC 2998 = test system: HCC 2998
HCT-116 = test system: HCT-116
HCT-15 = test system: HCT-15
HL-60 = test system: HL-60
HOP-62 = test system: HOP-62
HT-29 = test system: HT-29
Hs-578T = test system: Hs-578T
IGROV-1 = test system: IGROV-1
K562 = test system: K562
KM12 = test system: KM12
LOX IMVI = test system: LOX IMVI
M14 = test system: M14
MCF7 = test system: MCF7
MDA-MB-435 = test system: MDA-MB-435
MOLT-4 = test system: MOLT-4
Malme-3M = test system: Malme-3M
NCI-H23 = test system: NCI-H23
NCI-H460 = test system: NCI-H460
NCI-H522 = test system: NCI-H522
NCI/ADR-RES = test system: NCI/ADR-RES
OVCAR-3 = test system: OVCAR-3
OVCAR-4 = test system: OVCAR-4
OVCAR-5 = test system: OVCAR-5
OVCAR-8 = test system: OVCAR-8
PC-3 = test system: PC-3
RPMI-8226 = test system: RPMI-8226
SF-268 = test system: SF-268
SF-295 = test system: SF-295
SF-539 = test system: SF-539
SK-MEL-28 = test system: SK-MEL-28
SK-MEL-2 = test system: SK-MEL-2
SK-MEL-5 = test system: SK-MEL-5
SK-OV-3 = test system: SK-OV-3
SNB-19 = test system: SNB-19
SR = test system: SR
SW-620 = test system: SW-620
T47D = test system: T47D
U-251 = test system: U-251
UACC-257 = test system: UACC-257
UACC-62 = test system: UACC-62
UO-31 = test system: UO-31
HOP-92 = test system: HOP-92
MDA-MB-231 = test system: MDA-MB-231
RXF 393 = test system: RXF 393
MDA-N = test system: MDA-N
NCI-H226 = test system: NCI-H226
SN12C = test system: SN12C
SNB-75 = test system: SNB-75
TK-10 = test system: TK-10

Measured: GI50

CCN(CC)Cc1ccc(C(=S)Nc2ccc(C)cc2)s1
inactive: 786-0 15.5 µM | A498 13.3 µM | A549 16.6 µM | ACHN 16 µM | BT-549 20.3 µM | CAKI-1 15 µM | CCRF-CEM 8.83 µM | COLO 205 16 µM | DU-145 20.5 µM | EKVX 16.2 µM | HCC 2998 12.9 µM | HCT-116 15.1 µM | HL-60 9.66 µM | HOP-62 17.5 µM | HT-29 4.08 µM | Hs-578T 1.84 µM | IGROV-1 10.9 µM | K562 6.59 µM | KM12 15.3 µM | LOX IMVI 16 µM | M14 15.1 µM | MCF7 12.3 µM | MDA-MB-435 12.2 µM | MOLT-4 13 µM | Malme-3M 16.5 µM | NCI-H23 8.09 µM | NCI-H460 15.4 µM | NCI-H522 14.6 µM | NCI/ADR-RES 19.2 µM | OVCAR-3 21.2 µM | OVCAR-4 21.6 µM | OVCAR-5 14.8 µM | OVCAR-8 14.8 µM | PC-3 14.3 µM | RPMI-8226 14.7 µM | SF-268 1.25 µM | SF-295 13.8 µM | SF-539 20.4 µM | SK-MEL-28 15 µM | SK-MEL-2 15.7 µM | SK-MEL-5 13.4 µM | SK-OV-3 15.6 µM | SNB-19 19 µM | SR 12.1 µM | SW-620 20.2 µM | T47D 15.9 µM | U-251 14.7 µM | UACC-257 11.4 µM | UACC-62 14.2 µM | UO-31 15.5 µM
16.4 µM: HCT-15

NC(CO)Cc1c[nH]cn1 (stereo unspecified)
inactive: BT-549 > 100 µM | CAKI-1 > 100 µM | DU-145 > 100 µM | HOP-92 > 10 µM | M14 > 100 µM | MDA-MB-231 > 100 µM | NCI-H522 > 100 µM | OVCAR-4 > 10 µM | OVCAR-5 > 100 µM | RXF 393 > 10 µM | UACC-257 > 100 µM

COP(C)(=O)/C(Cc1ccccc1)=N\O (stereo unspecified)
> 100 µM: HCT-15
inactive: A549 > 100 µM | ACHN > 100 µM | CAKI-1 > 100 µM | CCRF-CEM > 100 µM | COLO 205 > 100 µM | DU-145 > 100 µM | HCC 2998 > 100 µM | HCT-116 > 100 µM | HL-60 > 100 µM | HOP-62 > 100 µM | HOP-92 > 100 µM | HT-29 > 100 µM | Hs-578T > 100 µM | IGROV-1 > 100 µM | K562 > 100 µM | LOX IMVI > 100 µM | M14 > 100 µM | MCF7 > 100 µM | MDA-MB-231 > 100 µM | MDA-MB-435 > 100 µM | MDA-N > 100 µM | MOLT-4 > 100 µM | NCI-H226 > 100 µM | NCI-H23 > 100 µM | NCI-H460 > 100 µM | NCI/ADR-RES > 100 µM | OVCAR-3 > 100 µM | OVCAR-4 > 100 µM | OVCAR-5 > 100 µM | OVCAR-8 > 100 µM | PC-3 > 100 µM | RPMI-8226 > 100 µM | SF-295 > 100 µM | SK-MEL-28 > 100 µM | SK-MEL-2 > 100 µM | SK-MEL-5 > 100 µM | SK-OV-3 > 100 µM | SN12C > 100 µM | SNB-19 > 100 µM | SNB-75 > 100 µM | SR > 100 µM | SW-620 > 100 µM | T47D > 100 µM | TK-10 > 100 µM | U-251 > 100 µM | UACC-257 > 100 µM | UO-31 > 100 µM

[N-]=[N+]=Nc1cc(=O)n(-c2ccccc2)c(=O)n1-c1ccccc1
inactive: 786-0 > 100 µM | A549 > 100 µM | ACHN > 100 µM | BT-549 > 100 µM | CAKI-1 > 100 µM | CCRF-CEM > 100 µM | COLO 205 > 100 µM | EKVX > 100 µM | HCT-116 > 100 µM | HOP-62 > 100 µM | HOP-92 > 100 µM | HT-29 > 100 µM | Hs-578T > 100 µM | IGROV-1 > 100 µM | K562 > 100 µM | KM12 > 100 µM | M14 > 100 µM | MCF7 > 100 µM | MDA-MB-231 > 100 µM | MDA-MB-435 > 100 µM | MOLT-4 > 100 µM | Malme-3M > 100 µM | NCI-H226 > 100 µM | NCI-H23 > 100 µM | NCI-H522 > 100 µM | NCI/ADR-RES > 100 µM | OVCAR-3 > 100 µM | OVCAR-4 > 100 µM | OVCAR-5 > 100 µM | OVCAR-8 > 100 µM | PC-3 > 100 µM | RPMI-8226 > 100 µM | RXF 393 > 100 µM | SF-268 > 100 µM | SF-295 > 100 µM | SF-539 > 100 µM | SK-MEL-28 > 100 µM | SK-MEL-2 > 100 µM | SK-MEL-5 > 100 µM | SK-OV-3 > 100 µM | SN12C > 100 µM | SNB-19 > 100 µM | SNB-75 > 100 µM | SR > 100 µM | SW-620 > 100 µM | T47D > 100 µM | TK-10 > 100 µM | U-251 > 100 µM | UACC-257 > 100 µM | UACC-62 67 µM | UO-31 > 100 µM

N#Cc1sc2c(c1OC(=O)c1ccc(Cl)cc1)c(=O)n(-c1ccccc1)c(=S)n2-c1ccccc1
active: NCI-H522 0.504 µM
inactive: 786-0 20.5 µM | A498 21.5 µM | A549 31.4 µM | ACHN 28.4 µM | CAKI-1 27.3 µM | CCRF-CEM 4.37 µM | COLO 205 18.5 µM | DU-145 25.8 µM | EKVX 21 µM | HCC 2998 21.5 µM | HCT-116 15.4 µM | HL-60 19.4 µM | HOP-62 27.7 µM | HOP-92 18.5 µM | HT-29 22.4 µM | Hs-578T 15.6 µM | IGROV-1 16.7 µM | K562 22 µM | KM12 14.9 µM | LOX IMVI 17.1 µM | M14 20.4 µM | MCF7 23.1 µM | MDA-MB-231 32.4 µM | MDA-MB-435 20.6 µM | MDA-N 20.3 µM | MOLT-4 42.3 µM | Malme-3M 20.4 µM | NCI-H226 26.7 µM | NCI-H23 21.7 µM | NCI-H460 16.4 µM | NCI/ADR-RES 23.3 µM | OVCAR-3 17.1 µM | OVCAR-4 23.3 µM | OVCAR-5 25.8 µM | OVCAR-8 18.1 µM | PC-3 21.7 µM | RPMI-8226 17.7 µM | RXF 393 19.7 µM | SF-268 23.3 µM | SF-295 19.2 µM | SF-539 20.8 µM | SK-MEL-28 16.9 µM | SK-MEL-5 17.1 µM | SK-OV-3 29.9 µM | SN12C 21 µM | SNB-19 21.9 µM | SNB-75 40.8 µM | SR 19.1 µM | SW-620 21.2 µM | T47D 24.4 µM | TK-10 23.3 µM | U-251 11.1 µM | UACC-257 27.3 µM | UACC-62 18.2 µM
15.8 µM: HCT-15

N#C/N=[N+](\[O-])c1ccc(C(=O)O)cc1
inactive: A549 > 100 µM | ACHN 18.4 µM | BT-549 16.4 µM | CCRF-CEM 32.7 µM | EKVX 18.4 µM | HCC 2998 25.5 µM | HOP-62 16.6 µM | HOP-92 20.4 µM | HT-29 20.3 µM | Hs-578T 30.8 µM | IGROV-1 43.5 µM | K562 15.4 µM | KM12 > 100 µM | M14 18.2 µM | MCF7 19.2 µM | MDA-MB-435 17.9 µM | NCI-H226 19.2 µM | NCI-H23 17.7 µM | NCI-H460 28.7 µM | NCI-H522 19.5 µM | NCI/ADR-RES 19.3 µM | OVCAR-3 15.2 µM | OVCAR-4 21 µM | OVCAR-5 20 µM | OVCAR-8 17.6 µM | PC-3 17.1 µM | RPMI-8226 14.5 µM | RXF 393 16.1 µM | SF-268 19.4 µM | SF-295 > 100 µM | SF-539 16.3 µM | SK-MEL-28 18.5 µM | SK-MEL-2 18.7 µM | SK-OV-3 18.6 µM | SNB-19 16.3 µM | SNB-75 23.1 µM | SW-620 19.9 µM | TK-10 17.5 µM | U-251 19 µM | UACC-257 18 µM | UACC-62 17.4 µM | UO-31 16.6 µM
active: HL-60 < 0.01 µM
16.2 µM: HCT-15
